Source: US20040086942A1, “Ige receptor antagonists” (priority 2003, published 2004)
Entries after “also recorded” stand apart in the source; their conditions may differ. Where two headings read alike, the source gives them in different places. Where a SMILES comes first, the peptide text is derived from it. Bridges are numbered along the chain shown (N, C = ends). Where no end group is shown, it is not given here.

Legend:
[1] = solubility in assay/binding buffer; type: physicochemical; details: assay buffer of the IgE binding inhibition assay
[2] = 2D NMR structural score versus reference peptide; type: physicochemical; parameters: key to Structure Score: +++, peptide structurally similar to reference; +, structurally similar to reference but significantly less stable; +/−, peptide has some elements of stable structure, but the conformation differs from the reference structure; −, peptide is predominantly unstructured; *peptide IGE037 (SEQ ID NO:128) was initially unstructured (monomeric form), but became structured after spontaneous dimer formation; details: reference IGE134
Summary of the method: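 Backbone ¹H resonances assigned by 2D NMR and ³JHN-Hα coupling constants measured against a reference peptide. Structure scored similar when chemical shifts, coupling constants and NOEs are consistent with the reference structure.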

[3] = target: T1, alpha subunit of the human FcεRI receptor (Homo sapiens, UniProt P12319); test: cell-based 125I-IgE binding inhibition assay on CHO FcεRI+ cells
T1 construct: expressed in transfected cells; host or cells: Chinese hamster ovary (CHO FcεRI+) cells
T1 sequence (P12319 26-257): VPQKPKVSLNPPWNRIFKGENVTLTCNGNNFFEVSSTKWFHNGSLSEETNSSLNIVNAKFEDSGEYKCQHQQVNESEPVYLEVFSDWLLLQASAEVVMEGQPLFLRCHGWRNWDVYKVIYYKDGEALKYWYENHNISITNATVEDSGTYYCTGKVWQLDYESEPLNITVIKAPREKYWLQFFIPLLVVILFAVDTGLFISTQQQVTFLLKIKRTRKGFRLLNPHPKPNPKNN
Summary of the method: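 Peptides, serially diluted 1:3 from 50-500 uM, preincubated 1 h at room temperature on CHO cells expressing human FcεRI alpha, then 1.5 nM 125I-IgE added for 45-60 min at 4 °C. Buffer F12/DMEM, 1% BSA, 0.05% NaN3, pH 7.2. Bound counts by gamma counting; IC50 from 4-parameter fits.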

[4] = disulfide reshuffling of monomer peptide to homodimer in solution; type: physicochemical; details: in water or buffer at neutral pH
Description: This change occurs slowly, over a 3-12 day period following the solubilization of the peptide in water or buffer at neutral pH. […] Additional support for the occurrence of a change came from NMR data detecting a change in the one-dimensional NMR spectrum. Also HPLC reverse phase data indicated a change in retention time that correlated with the activity and the conversion of a monomer to a dimer. Final confirmation of the formation of an active dimer followed the syntheses of both parallel (IGE088, SEQ ID NO:128, 128) and anti-parallel (IGE089, SEQ ID NOS:128, 157) […] disulfide-linked dimer peptides. Both peptide forms were assayed for activity in inhibiting I^125-IgE binding to cell surface expressed FcεRI.

FcεRIα = target: T2, FcεRIα (Homo sapiens, UniProt P12319); test: surface plasmon resonance biosensor direct-binding assay
T2 construct: human FcεRI(aa 1-176) was expressed using a baculovirus secretion expression system; host or cells: Hi-5 insect cells infected with baculovirus (virus produced in Sf9; transfer vector pAcGP67)
T2 sequence (P12319 26-201): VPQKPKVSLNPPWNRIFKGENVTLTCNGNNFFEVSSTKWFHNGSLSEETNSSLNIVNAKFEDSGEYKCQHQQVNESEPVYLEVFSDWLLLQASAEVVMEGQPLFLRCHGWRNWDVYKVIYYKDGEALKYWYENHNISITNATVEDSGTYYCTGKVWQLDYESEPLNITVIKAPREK
Experimental: Several peptides were also tested in a direct-binding assay using a surface plasmon resonance biosensor (Lofas & Johnsson, J. Chem. Soc. Commun. 21, 1526-1528 (1990)). FcεRIα, produced in baculovirus infected insect cells, was immobilized by the surface thiol method (BIAcore Methods Manual Supplement 5a, BIAcore, Inc., Piscataway, N.J.). Briefly, receptor was reacted with 2-(2pyridinyldithio)ethaneamine hydrochloride (PDEA; Natake & Swaisgood, J. Biochem. 74, 77-86 (1973)), desalted into 10 mM sodium acetate (pH 4.8) and stored in aliquots at −80″C. Thawed PDEA-receptor was injected over carboxymethyl-dextran (B1 or CM5, BIAcore, Inc.) biosensor chips preactivated with N-ethyl-N′-(3-dimethylaminopropyl)-carbodiimide hydrochloride (EDC) and N-hydroxysuccinimide (NHS), cystamine, and DTT. Following coupling, reactive groups on the chip were quenched with […] and ethanolarine. Serial dilutions of peptide in running buffer (phosphate-buffered saline containing 0.05% Tween-20, 0.01% sodium azide) were injected over the immobilized receptor, and the net amount of peptide bound at steady-state was measured as the net change in response (RU) at a point just prior to termination of peptide injection, compared to a running-buffer baseline. Binding affinities (Table 10) are reported as the midpoint (EC50) of a 4-parameter fit to the peptide saturation curve.

FcεRI = target: T3, FcεRI (Homo sapiens, UniProt P12319); test: competitive phage ELISA on baculovirus-derived FcεRI; type: binding; details: compared with the parent
T3 construct: human FcεRI(aa 1-176) was expressed using a baculovirus secretion expression system; host or cells: Hi-5 insect cells infected with baculovirus (virus produced in Sf9; transfer vector pAcGP67)
T3 sequence (P12319 26-201): T2 sequence (P12319 26-201)
Description: The extracellular domain of the alpha subunit of the human FcεRI(aa 1-176) was expressed using a baculovirus secretion expression system (Pharminten). cDNA encoding this domain was obtained through PCR of a plasmid containing a full length clone. The DNA fragment was ligated into baculovirus tranfer vector pAcGP67 and along with BaculoGold linearized baculovirus DNA was transfected into Sf9 cells Spodoptera frugiperda insect cells for baculovirus production (Pharmingen). Soluble FcεRI was affinity purified from the growth media of baculovirus infected Hi-5 insect cells (Expression Systems).
Phage ELISA assays were carried out as described (Lowman, 1998, supra), using Nunc Maxisorp™ plates coated with a 2 μg/mL solution of baculovirus-derived FcεRI. Peptide-phage were pre-incubated for 5-10 min with serial dilutions of receptor, then added to the receptor-coated plate. After incubation for 1 h at room temperature, the plates were washed and an anti-phage HRP-conjugated antibody (Pharmacia) was added. After further incubation for 20 min, plates were again washed and developed using the substrate OPD (Sigma). Optical density at 492 nm was read and plotted as a function of FcεRI concentration to determine an IC50 of inhibition by each peptide-phage variant.
A phage-based alanine scanning approach was used to map the FcεRI binding determinants of IGE134 (SEQ ID NOS:155, 171), as described above for IGE120 (SEQ ID NO:131, 159). […] Additionally, combinations of Ala mutations, deletions, and other substitutions were tested.

RBL-48 cells = target: T4, RBL-48 cells (Homo sapiens, UniProt P12319); test: histamine release assay: induction of histamine release by peptide; details: peptide 0.5 mM on RBL-48 cells
T4 sequence (P12319 26-257): T1 sequence (P12319 26-257)
Experimental: Peptides were assayed in a histamine release assay (Lowe et al., (1995) J. Immunol. Methods, 184:113-122) to determine: (1) if the peptides could trigger histamine release and (2) if the peptides could prevent histamine release in the presence of ragweed and ragweed specific IgE. Rat basophil cell line RBL-48, which expresses the human FcεRI alpha subunit was cultured overnight in Falcon 96 flat well microtiter dishes. The cells were washed three times with growth media and then incubated in Iscove's MEM medium containing 10% fetal bovine serum and 3 USP units per milliliter of heparin (histamine assay buffer).

CSCC[C@H](NC(=O)[C@@H]1CSSC[C@H](NC(=O)[C@@H](NC(=O)[C@H](C)NC(=O)[C@H](CCC(=O)O)NC(=O)[C@H](C)N)[C@@H](C)O)C(=O)N[C@@H]([C@@H](C)O)C(=O)N[C@@H](CCC(=O)O)C(=O)NCC(=O)N2CCC[C@H]2C(=O)N[C@@H](Cc2c[nH]c3ccccc23)C(=O)NCC(=O)N[C@@H](Cc2c[nH]c3ccccc23)C(=O)N[C@@H](C(C)C)C(=O)N1)C(=O)N[C@@H](C)C(=O)N[C@@H](C)C(=O)N[C@@H](CC(=O)O)C(=O)O [AEATCTEGPWGWVCMAAD] (H-AEATCTEGPWGWVCMAAD-OH; disulfide 5-14)
solubility in the assay/binding buffer [1]: not soluble; also recorded: insoluble

CC(C)C[C@H](NC(=O)[C@H](C)N)C(=O)N[C@H]1CSSC[C@@H](C(=O)N[C@@H](Cc2ccc(O)cc2)C(=O)N[C@H](C(N)=O)C(C)C)NC(=O)[C@H](C(C)C)NC(=O)[C@H](C)NC(=O)[C@@H]2CCCN2C1=O [IGE037, ALCPAVCYV-nh2] (H-ALCPAVCYV-NH2; disulfide 3-7; N-terminus assumed)
Structure Score [2]: +++* | IC50 ([3]; IGE037: initially, read-out: IC50): ~300 µM | period of conversion of monomer to disulfide linked homodimer [4]: 3 to 12 days

CC(C)C[C@@H]1NC(=O)[C@H](CCC(=O)O)NC(=O)[C@H](Cc2ccc(O)cc2)NC(=O)[C@@H]2CSSC[C@H](NC(=O)[C@H](CC(C)C)NC(=O)[C@H](CCC(=O)O)NC(=O)[C@H](Cc3ccc(O)cc3)NC(=O)[C@H](CC(=O)O)NC1=O)C(=O)N1CCC[C@H]1C(=O)N[C@@H](CC(=O)O)C(=O)N[C@@H](C(C)C)C(=O)N[C@H](C(=O)N[C@@H](Cc1ccc(O)cc1)C(=O)N[C@H](C(N)=O)C(C)C)CSSC[C@H](NC(=O)[C@H](CCC(N)=O)NC(=O)[C@@H](N)C(C)C)C(=O)N1CCC[C@H]1C(=O)N[C@@H](Cc1c[nH]cn1)C(=O)N[C@@H](Cc1ccccc1)C(=O)N2 [IGE134] (H-VQCPHFCYELDYELCPDVCYV-NH2; disulfide 3-19, 7-15; N-terminus assumed)
Structure Score [2]: +++ | Kd (FcεRIα): 0.032 µM | relative binding affinity (in words) (FcεRI): improved affinity over IGE122 | IC50 ([3]; average IC50, inhibition assay (Table 9)): 0.032 µM

PRCTEGPWGWVCM (disulfide 3-12 (inferred); not fully specified (C-terminus))
levels of histamine released (RBL-48 cells): equivalent to that of the negative control
